Earlier results, collected in patent US11304951B1 (Janssen Pharmaceutica NV, priority 2020, dated 2022).

water solubility: extreme low water solubility
Structure (SMILES): CCCCCCCCCCCCCCCC(=O)OC1CCCn2c1nc(C)c(CCN1CCC(c3noc4cc(F)ccc34)CC1)c2=O (racemic) [paliperidone palmitate, (±)-3-[2-[4-(6-fluoro-1,2-benzisoxazol-3-yl)-1-piperidinyl]ethyl]-6,7,8,9-tetrahydro-2-methyl-4-oxo-4H-pyrido[1,2-c]pyrimidin-9-yl hexadecanoate]
